# “Also recorded” adds a separate entry of the source.
# Tests used:
# [1] = test system: human intestinal Caco-2 cells; experiment: MTT cytotoxicity (cell viability) assay; assay type: cell-based; settings: for Survival Rates: n = 5, mean ± SD
# Procedure: Cell viability was assessed using an MTT assay. Briefly, 0.1 mL of human intestinal Caco-2 cells was seeded onto 96-well plates at a density of 1×10^5 cells per well in a 96-well plate. The cells were grown in an atmosphere with 5% CO2 and 95% relative humidity over approximately 48 h. Subsequently, the culture medium was replaced with HBSS containing different concentrations of loganin (0.1-200 μM); the final concentration of dimethyl sulfoxide (DMSO) in HBSS remained at <1%. The negative control was HBSS containing 1% DMSO. […] Then, 0.2 mL of 0.5mg/mL MTT solution was added to each well and incubated for 4 h in dark. The medium was then removed, the MTT-formazan crystals were solubilized by incubating with 150 μL of DMSO with gentle shaking for 10 min, and absorbance was determined at 490 nm in a Multiskan Spectrum microplate reader (Thermo Labsystems, MA, USA). In each MTT assay, every sample was tested in five replicates and the viability of the nontreated control cells was arbitrarily defined as 100%.
# [2] = Bidirectional transport across Caco-2 cell monolayers (concentration, time, pH, temperature; control without inhibitor); assay type: in vitro ADME, human; settings: human; for Papp A→B at 60 min, 20 µM: Caco-2, pH 7.4, loganin 20 μM, AP to BL
# Procedure: (§1) Cells were maintained in DMEM with 10% FBS, 1× nonessential amino acids, and 1× penicillin and streptomycin at 37°C with 5% CO2. Cells of passage 35-40 were used in this study to maintain relatively constant cellular phenotypes. The medium was replaced every 2-3 days during incubation. After reaching approximately 80% confluence, the cells were detached using 0.02% ethylenediaminetetraacetic acid (EDTA) and 0.05% trypsin at a density of 5.3×10^4 cells/cm^2 on a 60-mm plastic culture dish for the uptake experiment or a 12-mm polyester membrane insert in a 12-well plate for the permeation experiment. The media in the culture plates were changed every two days for the first week after seeding and replaced daily afterward. The integrity of the cell monolayers was examined by measuring the transepithelial electrical resistance (TEER) with a Millicell-ERS-electrode (Millipore Corp, Billerica, MA, USA). After 21-23 days, monolayers with a TEER value (TEER=[TEERtest- TEERbackground]×area) above 500Ωcm^2 were used during the transport experiments.
# (§2) Before the experiments, the human intestinal Caco-2 cell monolayers were washed twice with HBSS medium (pH 7.4). The transport experiments were conducted by adding the drug solutions (containing 1% DMSO) to either the apical (AP, 0.5 mL) or basolateral side (BL, 1.0 mL), while the receiving chamber contained the corresponding volume of blank HBSS medium. The monolayers were incubated at 37°C, and 50 μL samples were taken at 15, 30, 45, 60, 90, and 120 min from the acceptor compartment, and the volume was then immediately replaced with50 μL of fresh, prewarmed blank HBSS. TEER measurements for assessing the membrane integrity took place before and after the experiment. The samples were frozen immediately and stored below −80°C before analysis.
# (§3) The loganin transport (20 μM) at 4°C and 37°C was evaluated in the AP to BL direction to investigate the effect of temperature. The effect of pH on the loganin transport (20 μM) in the AP to BL direction was studied using the following pH combinations for the HBSS in the acceptor/donor compartments: 6.0/7.4 and 7.4/7.4.
# (§4) UPLC-MS/MS data acquisition was performed using Analyst 1.5.2 and MultiQuant 2.1.1 software (Applied Biosystems). The data were analyzed by SPSS Software. The apparent permeability coefficient (Papp) was calculated according to Papp = (dQ/dt)/(A·C0)
# (§5) where dQ/dt is the steady-state flux (nmol/s), A is the surface area of the insert (cm^2); C0 is the initial concentration. The efflux ratio (P) was determined by calculating the ratio of PappBA versus PappAB as in(1) P=PappBA/PappAB Statistical analysis was performed with analysis of variance (ANOVA) after confirmation of normal distributions.
# [3] = test system: human intestinal Caco-2 cell monolayers; experiment: as above; assay type: in vitro ADME
# Procedure: as §1, §2, §3, §4, §5
# P-glycoprotein (P-gp) [4] = target: T1, P-glycoprotein (P-gp) (Homo sapiens, UniProt P08183); experiment: Loganin transport across Caco-2 monolayers with P-gp inhibitor verapamil; assay type: in vitro ADME
# T1 construct: endogenous in cells; host or cells: Caco-2 monolayers
# Procedure: as §2
# (§6) Several efflux and influx transporters were investigated for their effects on the transport flux of loganin. One hundred μM verapamil was added to evaluate the selectivity of P-glycoprotein (P-gp); inhibiting the efflux by multidrug resistance-associated proteins (MRPs) was undertaken by adding 100μM MK571, 50μM benzbromarone, and 200μM indomethacin [21–23]; 25 μM apigenin was used to investigate breast cancer resistance protein (BCRP); 50 μM sodium vanadate and cimetidine were used as Na^+/K^+pump and […] inhibitors.
# as §4, §5
# P-glycoprotein (P-gp) [5] = test system: T2, P-glycoprotein (P-gp); experiment: as above; assay type: in vitro ADME, human; settings: human, Caco-2, pH 7.4; with verapamil 100 μM, loganin 20 μM, n = 3
# T2 construct: endogenous in cells; host or cells: Caco-2 monolayers
# Procedure: as §2, §6, §4, §5
# MRPs = experiment: Loganin transport across Caco-2 monolayers with MRPs inhibitor MK 571; assay type: in vitro ADME, human
# Procedure: as §2, §6, §4, §5
# [6] = Caco-2, pH 7.4, control, no inhibitor, loganin 20 μM, n = 3
# [7] = human, Caco-2, pH 7.4, with MK571 100 μM, with MK 571 100 μM, loganin 20 μM, n = 3
# T1 sequence (P08183 whole entry): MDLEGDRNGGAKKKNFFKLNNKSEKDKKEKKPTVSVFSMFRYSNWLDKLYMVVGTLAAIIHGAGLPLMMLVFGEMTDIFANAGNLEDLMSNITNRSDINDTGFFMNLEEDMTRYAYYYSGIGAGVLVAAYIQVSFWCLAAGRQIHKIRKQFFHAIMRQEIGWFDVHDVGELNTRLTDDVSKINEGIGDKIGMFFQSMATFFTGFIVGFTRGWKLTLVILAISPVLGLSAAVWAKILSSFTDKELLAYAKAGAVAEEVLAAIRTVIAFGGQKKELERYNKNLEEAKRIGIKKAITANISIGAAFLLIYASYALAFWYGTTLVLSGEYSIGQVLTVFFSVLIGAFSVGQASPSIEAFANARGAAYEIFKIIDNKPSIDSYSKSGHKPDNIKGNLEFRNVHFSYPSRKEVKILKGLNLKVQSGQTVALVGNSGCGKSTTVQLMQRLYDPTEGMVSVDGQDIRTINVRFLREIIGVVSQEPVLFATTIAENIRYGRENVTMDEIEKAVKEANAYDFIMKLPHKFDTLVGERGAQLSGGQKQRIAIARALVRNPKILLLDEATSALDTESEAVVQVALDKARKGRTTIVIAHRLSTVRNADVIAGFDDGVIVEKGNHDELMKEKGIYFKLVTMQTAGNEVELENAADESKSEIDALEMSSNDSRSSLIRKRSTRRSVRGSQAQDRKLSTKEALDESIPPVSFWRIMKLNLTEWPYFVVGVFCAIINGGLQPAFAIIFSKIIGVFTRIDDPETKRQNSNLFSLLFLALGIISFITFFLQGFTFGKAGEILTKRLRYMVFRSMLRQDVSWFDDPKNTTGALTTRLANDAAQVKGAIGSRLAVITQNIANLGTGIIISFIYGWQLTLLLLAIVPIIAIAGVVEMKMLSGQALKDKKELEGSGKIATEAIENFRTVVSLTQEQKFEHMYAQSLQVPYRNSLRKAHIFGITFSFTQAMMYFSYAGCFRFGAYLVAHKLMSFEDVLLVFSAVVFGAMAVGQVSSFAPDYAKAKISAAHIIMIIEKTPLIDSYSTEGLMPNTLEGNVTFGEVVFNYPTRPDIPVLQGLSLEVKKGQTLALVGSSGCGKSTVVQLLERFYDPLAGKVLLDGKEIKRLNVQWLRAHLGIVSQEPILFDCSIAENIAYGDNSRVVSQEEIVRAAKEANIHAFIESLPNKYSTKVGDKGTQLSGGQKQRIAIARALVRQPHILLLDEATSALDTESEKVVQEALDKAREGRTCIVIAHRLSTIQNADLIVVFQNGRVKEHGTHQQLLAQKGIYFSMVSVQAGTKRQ
smiles,measurement,setting,value
"COC(=O)C1=CO[C@@H](O[C@@H]2O[C@H](CO)[C@@H](O)[C@H](O)[C@H]2O)[C@@H]2[C@@H](C)[C@@H](O)C[C@H]12 [loganin, Loganin]",Survival Rates,"[1]; loganin 0.1 μM, MTT",107.66±10.9%
same,Survival Rates,"[1]; loganin 1 μM, MTT",108.73±25.4%
same,Survival Rates,"[1]; loganin 5 μM, MTT",106.57±8.3%
same,Survival Rates,"[1]; loganin 10 μM, MTT",106.22±10.9%
same,Survival Rates,"[1]; loganin 50 μM, MTT",103.45±3.3%
same,Survival Rates,"[1]; loganin 100 μM, MTT",101.45±6.5%
same,Inhibition of Caco-2 cells,"[1]; loganin 200 μM, MTT",4.67%
same,Survival Rates,"[1]; loganin 200 μM, MTT",95.33±5.3%
same,Toxicity to Caco-2 cells (in words),"[1]; loganin 0.1 to 100 μM, after 4 h exposure (so in the source)",nontoxic
same,"Papp A→B at 60 min, 20 µM",[2]; 4°C,7.12 ×10⁻⁶ cm/s
same,"Papp A→B at 60 min, 20 µM",[2]; 37°C,11.3 ×10⁻⁶ cm/s
same,"Papp A→B at 120 min, 20 μM",[2]; [6],13 ± 0.7 ×10⁻⁶ cm/s
same,"Papp B→A at 120 min, 20 μM",[2]; [6],11.7 ± 0.9 ×10⁻⁶ cm/s
same,"efflux ratio at 120 min, 20 μM","[2]; Caco-2, pH 7.4, control, no inhibitor, loganin 20 μM, read-out: P (efflux ratio PappBA/PappAB)",0.9
same,Papp A→B at 120 min,"[2]; Caco-2, pH 7.4, range over 5, 20, 40 and 80 μM loganin, read-out: Absorptive permeability PappAB (AP to BL)",12.2 to 14.8 ×10⁻⁶ cm/s
same,Papp B→A at 120 min,"[2]; Caco-2, pH 7.4, range over 5, 20, 40 and 80 μM loganin, read-out: Secretory permeability PappBA (BL to AP)",11.1 to 13 ×10⁻⁶ cm/s
same,Intestinal absorption indicated by Papp values (in words),[3]; classification by Papp > 1×10^−5cm/s = high absorption (>70%),good intestinal absorption
same,PappAB at pH 7.4 compared with pH 6 (in words),"[3]; loganin 20 μM, AP to BL, 60 min, p<0.05",significantly higher
same,"efflux ratio at 120 min, 20 μM","P-glycoprotein (P-gp) [4]; human, Caco-2, pH 7.4, with verapamil 100 μM, read-out: P (efflux ratio PappBA/PappAB)",0.84
same,Substrate of P-gp (in words),P-glycoprotein (P-gp) [4]; judged from verapamil vs control,not the substrate; also recorded: not a substrate
same,PappAB difference between verapamil and control groups (in words),P-glycoprotein (P-gp) [4]; verapamil 100 μM,insignificant
same,PappAB,"P-glycoprotein (P-gp) [4]; with verapamil 100 μM, loganin 20 μM, n = 3",11.1±1.7 ×10^−6cm/s
same,"Papp B→A at 120 min, 20 μM",P-glycoprotein (P-gp) [5],9.3 ± 1.7 ×10⁻⁶ cm/s
same,Increase of transport from the apical to the basolateral side,"MRPs; after addition of a MRP inhibitor (not named in the abstract), vs control",2.09 fold
same,"Papp A→B at 120 min, 20 μM",MRPs; [7],27.2 ± 4.1 ×10⁻⁶ cm/s
same,"Papp B→A at 120 min, 20 μM",MRPs; [7],3.9 ± 0.2 ×10⁻⁶ cm/s
same,"efflux ratio at 120 min, 20 μM","MRPs; human, Caco-2, pH 7.4, with MK571 100 μM, with MK 571 100 μM, read-out: P (efflux ratio PappBA/PappAB)",0.14
